Three compounds from ChEMBL document CHEMBL1130841, “Evaluation of phosphorus-containing inhibitors of gamma-glutamyl hydrolase” (Bioorg Med Chem Lett, 1998) can be followed below.

The target of data set [1] is T1, Gamma-glutamyl hydrolase (Homo sapiens, UniProt Q92820).
T1 sequence (Q92820 whole entry): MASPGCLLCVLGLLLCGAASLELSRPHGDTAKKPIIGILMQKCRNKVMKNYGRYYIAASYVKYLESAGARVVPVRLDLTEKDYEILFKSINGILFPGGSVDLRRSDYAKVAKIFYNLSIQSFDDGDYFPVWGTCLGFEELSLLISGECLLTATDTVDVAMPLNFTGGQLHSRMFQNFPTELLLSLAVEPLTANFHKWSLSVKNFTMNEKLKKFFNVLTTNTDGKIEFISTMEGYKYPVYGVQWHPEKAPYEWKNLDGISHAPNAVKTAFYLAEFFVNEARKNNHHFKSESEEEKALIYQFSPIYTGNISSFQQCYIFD
Briefly: Compound was tested for inhibitory potency against gamma-Glutamyl Hydrolase.

Data set [2] can be described thus: Dissociation constant was evaluated. The class given is physicochemical.
Data set [3] can be described thus: Phosphorylation rate constant was evaluated. Type of data set: ADME.

The compound `O=C(O)CC[C@H](NP(=O)(O)c1ccccc1)C(=O)O` had a Ki in data set [1] of 0.95 nM.
With `COP(=O)(N[C@@H](CCC(=O)O)C(=O)O)OC`, the Kd in data set [2] stood at 0.223 M⁻¹. The compound further returned a kp in data set [3] of 2.42 min⁻¹. Further, the Ki in data set [1] was 10.9 M⁻¹.
Taken in the same sequence, the figures for `COP(=O)(N[C@@H](CCC(=O)O)C(=O)O)c1ccccc1` (some centres not stated) were 27.4 M⁻¹, 7.24 min⁻¹ and 0.264 M⁻¹.
